Measurements from paper PMC8151276, “An Integrated Approach toward NanoBRET Tracers for Analysis of GPCR Ligand Engagement” (Molecules, 2021).

Columns and labels:
Type in all cases: binding
HTR1F = biological target: T1, HTR1F (Homo sapiens, UniProt P30939); experiment: NanoBRET screen HiBiT-HTR1F in HEK293; settings: HTR1F
T1 construct: purchased Promega (in-house HiBiT-GPCR construct library, NanoBRET)
T1 sequence (P30939 1-366): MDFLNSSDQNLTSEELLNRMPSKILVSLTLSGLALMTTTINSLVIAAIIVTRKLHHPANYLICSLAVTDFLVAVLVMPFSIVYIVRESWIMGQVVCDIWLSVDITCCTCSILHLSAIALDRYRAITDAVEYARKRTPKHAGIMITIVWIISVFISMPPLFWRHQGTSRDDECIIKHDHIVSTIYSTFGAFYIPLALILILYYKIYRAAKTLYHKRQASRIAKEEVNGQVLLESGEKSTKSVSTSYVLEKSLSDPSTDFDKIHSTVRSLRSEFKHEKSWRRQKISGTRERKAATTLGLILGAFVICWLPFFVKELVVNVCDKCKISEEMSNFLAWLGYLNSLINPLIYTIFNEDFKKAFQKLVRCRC
Description: (§1) Each tracer candidate was screened across the entire library of HiBiT-GPCR constructs using NanoBRET as the detection modality. As depicted in Figure 4A, the specificity of interactions was evaluated through decrease in BRET due to competitive displacement of a bound tracer by excess parental compound. Each tracer was analyzed for binding to each HiBiT-GPCR fusion in the absence and in the presence of competing parental compound. Briefly, HEK293 cells were transfected with HiBiT-GPCR constructs diluted into promoterless DNA to reduce expression and maximize translocation to the cell surface. Each tracer candidate was then screened at concentrations of 1 μM and 0.1 μM across cells expressing these fusions. Cells were treated for 1.5 h with tracer either alone or in the presence of 20 μM competing parental compound (i.e., control). BRET was measured upon addition of purified LgBiT and subsequent complementation with HiBiT genetically fused to a GPCR. The specificity of interactions was assessed through a decrease in BRET signal due to competitive displacement of the bound tracer. To further gauge the robustness of these interactions, the fold response over the control (i.e., BRETtracer/BRETcontrol) was calculated. We chose a 1.5-fold response, which translates to ≥7-fold signal over noise as the minimal threshold required to score an interaction as positive.
(§2) HiBiT-GPCR DNA constructs were diluted in 10 mM Tris pH 8 to a final concentration of 0.01 μg/μL, arrayed in 96-well plates and stored at −20 °C. For transfection, HEK293 cells were suspended in Opti-MEM (without phenol red) supplemented with 2% fetal bovine serum (Seradigm) and 100 units/mL penicillin–streptomycin (Gibco) at a final concentration of 220,000 cells/mL and dispensed into white 96-well plates at 90 μL/well. Subsequent transfections and screens were carried using an Agilent Bravo Automated Liquid Handling Platform. First, the 96-well HiBiT DNA arrays were diluted 25-fold in Opti-MEM (without serum or phenol red) to a final concentration of 0.0004 μg/μL and 20 μL of the diluted DNAs were transferred into new 96-well plates. Next, promoterless carrier DNA (1 μg/μL) was diluted 25-fold (0.04 μg/μL) and then dispensed into the diluted arrays at 20 μL/well. Following brief mixing, Viafect transfection reagent (Promega) diluted 16-fold into Opti-MEM was dispensed into the plates at 40 μL/well. After mixing by pipetting, plates were incubated for 10 min on the pipetting station deck. The DNA-transfection reagent complexes were then added to plates containing cells. To facilitate the screen, 10 μL of DNA-transfection reagent complexes were added in duplicates to the top 4 and bottom 4 rows, resulting in two identical 48-well arrays per plate. Plates with transfected cells were incubated for 18–20 h at 37 °C/5% CO2. A screen of each tracer across the entire library using two different concentrations requires duplicate plates of transfected cells. Depending on the number of tracers being screened, transfections can be scaled up using the same ratios. The next day, for each tracer, four 20× screening solutions in tracer dilution buffer (Promega) were prepared: two duplicates at final concentration of 20 μM and two duplicates at a final concentration of 2 μM. […] The four resulting solutions were diluted 4-fold in Opti-MEM without serum or phenol red to generate 5× solutions (5 µM and 0.5 µM tracer +/− 100 μM competing compound). To screen the library, a BioTek MultiFlo FX liquid dispenser was used to dispense 22.5 µL of tracer solution to the top 4 rows and 22.5 µL tracer + competing compound solution to the 4 bottom rows. Plates were briefly mixed on an orbital shaker and incubated for 1.5 h at room temperature. […] Plates were briefly mixed on an orbital shaker and incubated for 15 min to allow complementation.

ADRA1A = biological target: T2, ADRA1A (Homo sapiens, UniProt P35348); experiment: NanoBRET screen HiBiT-ADRA1A in HEK293; settings: ADRA1A
T2 construct: purchased Promega (in-house HiBiT-GPCR construct library, NanoBRET)
T2 sequence (P35348 1-466): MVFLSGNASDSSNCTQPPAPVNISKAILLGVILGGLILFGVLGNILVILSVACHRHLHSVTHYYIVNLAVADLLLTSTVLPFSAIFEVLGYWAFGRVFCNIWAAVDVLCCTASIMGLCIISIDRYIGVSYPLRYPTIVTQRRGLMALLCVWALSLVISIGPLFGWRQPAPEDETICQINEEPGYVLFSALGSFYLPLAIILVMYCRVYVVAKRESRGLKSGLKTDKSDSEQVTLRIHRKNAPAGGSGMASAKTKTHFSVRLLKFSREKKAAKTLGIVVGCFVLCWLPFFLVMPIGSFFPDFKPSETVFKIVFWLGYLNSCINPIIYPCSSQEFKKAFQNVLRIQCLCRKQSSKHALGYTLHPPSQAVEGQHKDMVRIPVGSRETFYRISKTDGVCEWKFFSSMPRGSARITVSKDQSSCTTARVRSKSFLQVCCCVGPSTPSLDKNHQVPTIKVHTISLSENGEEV
Description: as §1, §2

CCR10 = biological target: T3, CCR10 (Homo sapiens, UniProt P46092); experiment: NanoBRET screen HiBiT-CCR10 in HEK293; settings: CCR10
T3 construct: purchased Promega (in-house HiBiT-GPCR construct library, NanoBRET)
T3 sequence (P46092 1-362): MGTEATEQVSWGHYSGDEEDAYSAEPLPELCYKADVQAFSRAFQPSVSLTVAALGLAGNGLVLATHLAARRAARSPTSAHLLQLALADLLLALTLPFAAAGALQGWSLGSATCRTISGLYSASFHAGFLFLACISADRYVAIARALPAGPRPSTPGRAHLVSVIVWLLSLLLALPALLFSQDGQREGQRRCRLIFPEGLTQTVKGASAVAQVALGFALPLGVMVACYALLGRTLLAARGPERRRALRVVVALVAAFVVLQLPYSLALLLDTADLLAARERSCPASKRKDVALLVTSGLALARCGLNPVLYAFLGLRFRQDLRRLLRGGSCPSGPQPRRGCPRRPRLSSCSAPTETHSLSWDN
Description: as §1, §2

GPR50 = biological target: T4, GPR50 (Homo sapiens, UniProt Q13585); experiment: NanoBRET screen HiBiT-GPR50 in HEK293; settings: GPR50
T4 construct: purchased Promega (in-house HiBiT-GPCR construct library, NanoBRET)
T4 sequence (Q13585 whole entry): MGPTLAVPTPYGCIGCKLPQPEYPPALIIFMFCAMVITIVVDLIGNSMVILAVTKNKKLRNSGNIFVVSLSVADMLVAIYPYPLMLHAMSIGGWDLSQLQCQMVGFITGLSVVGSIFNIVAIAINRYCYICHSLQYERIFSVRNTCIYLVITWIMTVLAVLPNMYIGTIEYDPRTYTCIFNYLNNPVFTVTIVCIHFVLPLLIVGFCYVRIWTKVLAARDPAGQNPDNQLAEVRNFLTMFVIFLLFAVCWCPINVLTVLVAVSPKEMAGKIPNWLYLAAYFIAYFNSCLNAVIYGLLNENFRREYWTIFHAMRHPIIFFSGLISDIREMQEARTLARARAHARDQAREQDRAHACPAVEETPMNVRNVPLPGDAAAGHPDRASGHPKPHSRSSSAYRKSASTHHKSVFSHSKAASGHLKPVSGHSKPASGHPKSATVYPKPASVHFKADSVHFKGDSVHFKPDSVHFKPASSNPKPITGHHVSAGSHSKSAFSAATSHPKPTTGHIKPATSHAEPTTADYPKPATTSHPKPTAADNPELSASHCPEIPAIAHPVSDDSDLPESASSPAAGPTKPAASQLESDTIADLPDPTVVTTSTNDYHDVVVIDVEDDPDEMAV
Description: as §1, §2

Row | SMILES | NanoBRET Fold Response (HTR1F; tracer 0.1μM) | NanoBRET Fold Response (HTR1F; tracer 1μM) | NanoBRET Fold Response (ADRA1A; tracer 0.1μM) | NanoBRET Fold Response (ADRA1A; tracer 1μM) | NanoBRET Fold Response (CCR10; tracer 0.1μM) | NanoBRET Fold Response (CCR10; tracer 1μM) | NanoBRET Fold Response (GPR50; tracer 0.1μM) | NanoBRET Fold Response (GPR50; tracer 1μM) | NanoBRET Fold Response (HTR1F; 0.1μM) | NanoBRET Fold Response (HTR1F; 1μM) | NanoBRET Fold Response (ADRA1A; 0.1μM) | NanoBRET Fold Response (ADRA1A; 1μM) | NanoBRET Fold Response (CCR10; 0.1μM) | NanoBRET Fold Response (CCR10; 1μM) | NanoBRET Fold Response (GPR50; 0.1μM) | NanoBRET Fold Response (GPR50; 1μM)
1 | O=C(CCOCCOCCOCCOCCNC(=O)CCc1ccc2n1[B-](F)(F)[N+]1=C(c3ccc[nH]3)C=CC1=C2)NCCCN1CCN(C2=Nc3ccccc3Oc3ccc(Cl)cc32)CC1 [Loxapine-a-2-NB590] | 1.01 | 1.07 | 3.76 | 3.42 | 1.04 | 1.04 | 0.74 | 1.09 | – | – | – | – | – | – | – | –
2 | COc1ccccc1N1CCN(CCCCN2C(=O)c3ccc(CNC(=O)CCOCCOCCOCCOCCNC(=O)CCc4ccc5n4[B-](F)(F)[N+]4=C(c6ccc[nH]6)C=CC4=C5)cc3C2=O)CC1 [NAN-190-2-NB590] | 1.29 | 2.39 | 5.18 | 4.33 | 0.97 | 1.00 | 1.00 | – | – | – | – | – | – | – | – | –
3 | COc1ccccc1N1CCN(CCCCN2C(=O)c3ccc(CNC(=O)CCOCCNC(=O)c4ccc(CNC(=O)CCc5ccc6n5[B-](F)(F)[N+]5=C(c7ccc[nH]7)C=CC5=C6)cc4)cc3C2=O)CC1 [NAN-190-3-NB590] | 2.92 | 1.93 | 3.94 | 3.91 | 1.04 | 1.27 | 0.97 | 0.89 | – | – | – | – | – | – | – | –
4 | O=C(CCc1ccc2n1[B-](F)(F)[N+]1=C(c3ccc[nH]3)C=CC1=C2)NCc1ccc(C(=O)NCCOCCC(=O)N[C@@H]2CC[C@@]3(O)[C@H]4Cc5ccc(O)c6c5[C@@]3(CCN4CC3CC3)[C@H]2O6)cc1 [Naltrexone-3-NB590] | 1.35 | 1.30 | 1.10 | 0.96 | 1.02 | 0.92 | 0.94 | 0.97 | – | – | – | – | – | – | – | –
5 | Cc1cc2c(s1)Nc1ccccc1N=C2N1CCN(CCCNC(=O)CCOCCOCCOCCOCCNC(=O)CCc2ccc3n2[B-](F)(F)[N+]2=C(c4ccc[nH]4)C=CC2=C3)CC1 [Olanzapine-a-2-NB590] | 1.01 | 1.21 | 2.86 | 3.58 | 1.01 | 0.95 | 1.01 | 1.03 | – | – | – | – | – | – | – | –
6 | O=C(CCc1ccc2n1[B-](F)(F)[N+]1=C(c3ccc[nH]3)C=CC1=C2)NCc1ccc(C(=O)NCCOCCOCCNCC(O)COc2cccc3ccccc23)cc1 (centres unmarked) [Propranolol-3-NB590] | – | – | – | – | – | – | – | – | 1.08 | 0.99 | 1.53 | 1.47 | 1.04 | 1.00 | 1.01 | 1.05
7 | O=C(CCc1ccc2n1[B-](F)(F)[N+]1=C(c3ccc[nH]3)C=CC1=C2)NCCOCCOCCNC(=O)OCCOCCN1CCN(C2=Nc3ccccc3Sc3ccccc32)CC1 [Quetiapine-a-2-NB590] | 1.01 | 0.95 | 3.24 | 3.51 | 1.01 | 0.94 | 1.11 | 0.96 | – | – | – | – | – | – | – | –
8 | Cc1nc2n(c(=O)c1CCN1CCC(c3noc4cc(F)ccc34)CC1)CCCC2OC(=O)NCCOCCOCCOCCOCCNC(=O)CCc1ccc2n1[B-](F)(F)[N+]1=C(c3ccc[nH]3)C=CC1=C2 (centres unmarked) [Risperidone-2-NB590] | 0.98 | 1.07 | 4.86 | 3.45 | – | 0.95 | 0.99 | 1.01 | – | – | – | – | – | – | – | –
9 | CC(C)N(CC[C@H](c1ccccc1)c1cc(CCNC(=O)CCOCCOCCOCCOCCNC(=O)CCc2ccc3n2[B-](F)(F)[N+]2=C(c4ccc[nH]4)C=CC2=C3)ccc1O)C(C)C [Tolterodine-2-NB590] | 0.90 | 1.13 | 0.97 | 0.98 | 1.17 | 0.97 | 1.12 | 0.93 | – | – | – | – | – | – | – | –
10 | CC(C)N(CC[C@H](c1ccccc1)c1cc(CCNC(=O)c2ccc(CNC(=O)CCc3ccc4n3[B-](F)(F)[N+]3=C(c5ccc[nH]5)C=CC3=C4)cc2)ccc1O)C(C)C [Tolterodine-BZ-NB590] | 1.24 | 1.63 | 1.56 | 2.17 | 1.00 | 1.08 | 0.94 | 0.39 | – | – | – | – | – | – | – | –
11 | CCCn1c(=O)c2[nH]c(-c3ccc(OCC(=O)NCCNC(=O)CCOCCNC(=O)c4ccc(CNC(=O)CCc5ccc6n5[B-](F)(F)[N+]5=C(c7ccc[nH]7)C=CC5=C6)cc4)cc3)nc2n(CCC)c1=O [XAC-3-NB590] | 1.07 | 1.05 | 1.10 | 0.94 | 0.92 | 0.78 | 1.05 | 1.04 | – | – | – | – | – | – | – | –
